Experimental data from patent US20250339409A1, “USES OF PAN BET INHIBITORS” (VYNE THERAPEUTICS INC., priority 2021, published 2025).
“And” between values parts separate entries of the source, which are not always exact repeats. Equal values may be shown once. Marks after values point to notes of the source that are not given here.

Tested on: anti collagen antibodies induced arthritis (ACAIA)
Experiment: Anti collagen antibodies induced arthritis (ACAIA) in mice, intra-articular treatment: paw thickness, arthritis clinical score, body weight;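 further: mouse arthritis induced by IV anti-collagen mAb on day 0 plus IP LPS on day 4, with body weight, caliper paw thickness and 0-4 paw score tracked against a day 0 baseline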
Settings: for Average clinical score per day (untreated): untreated leg
[1] = Dexamethasone 1 mg/kg IA (Group 7), Av
[2] = Dexamethasone 1 mg/kg IA (Group 7), individual animals
[3] = Dexamethasone 1 mg/kg IP (Group 6), Av
[4] = Dexamethasone 1 mg/kg IP (Group 6), individual animals

## C[C@@H]1C[C@H]2[C@@H]3CCC4=CC(=O)C=C[C@]4(C)[C@@]3(F)[C@@H](O)C[C@]2(C)[C@@]1(O)C(=O)CO [dexamethasone, Dexamethasone, reference compound]
1 mg/kg IA (Group 7), Baseline
  Clinical score of treated leg (Avg.): 0.00 points
  Paw thickness Avg. Delta untreated -treated: 0.00 mm
  Percent change of weight per day (Av): 100.00%
  Percent change of weight per day (individual animal): 100%
  Δ clinical score untreated -treated, Avg. Delta: 0.00 points
  Average clinical score per day (untreated): 0.00 points
1 mg/kg IA (Group 7), Day 3
  Clinical score of treated leg (Avg.): 0.00 points
  Paw thickness Avg. Delta untreated -treated: −0.02 mm
  Percent change of weight per day (Av): 98.19%
  Percent change of weight per day (individual animal): 100% and 97.54% and 95.7% and 99.48%
  Δ clinical score untreated -treated, Avg. Delta: 0.00 points
  Average clinical score per day (untreated): 0.00 points
1 mg/kg IA (Group 7), Day 4
  Clinical score of treated leg (Avg.): 0.00 points
  Paw thickness Avg. Delta untreated -treated: −0.06 mm
  Percent change of weight per day (Av): 95.21%
  Percent change of weight per day (individual animal): 97.91% and 96.55% and 93.01% and 93.23%
  Δ clinical score untreated -treated, Avg. Delta: 0.00 points
  Average clinical score per day (untreated): 0.00 points
1 mg/kg IA (Group 7), Day 5
  Clinical score of treated leg (Avg.): 0.00 points
  Paw thickness Avg. Delta untreated -treated: −0.05 mm
  Percent change of weight per day (Av): 91.29%
  Percent change of weight per day (individual animal): 90.58% and 91.133% and 88.71% and 100%
  Δ clinical score untreated -treated, Avg. Delta: 0.00 points
  Average clinical score per day (untreated): 0.00 points
1 mg/kg IA (Group 7), Day 6
  Clinical score of treated leg (Avg.): 0.29 points
  Paw thickness Avg. Delta untreated -treated: 0.05 mm
  Paw thickness of treated leg (Avg.): 2.24** mm
  Paw thickness of untreated leg (Avg.): 2.29 mm
  Percent change of weight per day (Av): 88.66%
  Percent change of weight per day (individual animal): 86.91% and 87.68% and 86.02% and 102.0833%
  Δ clinical score untreated -treated, Avg. Delta: 0.29 points
  Average clinical score per day (untreated): 0.57 points
1 mg/kg IA (Group 7), Day 7
  Clinical score of treated leg (Avg.): 0.86 points
  Paw thickness Avg. Delta untreated -treated: −0.01 mm
  Paw thickness of treated leg (Avg.): 2.30** mm
  Paw thickness of untreated leg (Avg.): 2.30 mm
  Percent change of weight per day (Av): 88.04%
  Percent change of weight per day (individual animal): 89.01% and 83.25% and 86.02% and 104.1667%
  Δ clinical score untreated -treated, Avg. Delta: 0.00 points
  Average clinical score per day (untreated): 0.86 points
1 mg/kg IA (Group 7), Day 8
  Clinical score of treated leg (Avg.): 1.14 points
  Paw thickness Avg. Delta untreated -treated: 0.14 mm
  Paw thickness of treated leg (Avg.): 2.44 mm
  Paw thickness of untreated leg (Avg.): 2.59 mm
  Percent change of weight per day (Av): 89.48%
  Percent change of weight per day (individual animal): 90.05% and 83.25% and 87.63% and 104.6875%
  Δ clinical score untreated -treated, Avg. Delta: 0.57 points
  Average clinical score per day (untreated): 1.71 points
1 mg/kg IA (Group 7), Day 10
  Clinical score of treated leg (Avg.): 1.14 points
  Paw thickness Avg. Delta untreated -treated: 0.19 mm
  Paw thickness of treated leg (Avg.): 2.45 mm
  Paw thickness of untreated leg (Avg.): 2.64 mm
  Percent change of weight per day (Av): 92.65%
  Percent change of weight per day (individual animal): 91.1% and 92.61% and 87.63% and 104.1667%
  Δ clinical score untreated -treated, Avg. Delta: 0.43 points
  Average clinical score per day (untreated): 1.57 points
1 mg/kg IA (Group 7), Day 12
  Clinical score of treated leg (Avg.): 1.29 points
  Paw thickness Avg. Delta untreated -treated: 0.24 mm
  Paw thickness of treated leg (Avg.): 2.50 mm
  Paw thickness of untreated leg (Avg.): 2.74 mm
  Percent change of weight per day (Av): 96.89%
  Percent change of weight per day (individual animal): 93.19% and 99.01% and 90.32% and 110.4167% and 94.55%
  Δ clinical score untreated -treated, Avg. Delta: 0.43 points
  Average clinical score per day (untreated): 1.71 points
1 mg/kg IP (Group 6), Baseline
  Clinical score of treated leg (Avg.): 0.00 points
  Paw thickness Avg. Delta untreated -treated: 0.02 mm
  Percent change of weight per day (Av): 100.00%
  Percent change of weight per day (individual animal): 100%
  Δ clinical score untreated -treated, Avg. Delta: 0.00 points
  Average clinical score per day (untreated): 0.00 points
1 mg/kg IP (Group 6), Day 3
  Clinical score of treated leg (Avg.): 0.00 points
  Paw thickness Avg. Delta untreated -treated: 0.00 mm
  Percent change of weight per day (Av): 95.60** percent
  Percent change of weight per day (individual animal): 94.97% and 94.09% and 95.07% and 96.31% and 96.24% and 96.41% and 96.1165%
  Δ clinical score untreated -treated, Avg. Delta: 0.00 points
  Average clinical score per day (untreated): 0.00 points
1 mg/kg IP (Group 6), Day 4
  Clinical score of treated leg (Avg.): 0.00 points
  Paw thickness Avg. Delta untreated -treated: −0.01 mm
  Percent change of weight per day (Av): 96.59%
  Percent change of weight per day (individual animal): 96.48% and 95.5665% and 97.04% and 96.31% and 96.71% and 97.4359% and 96.6%
  Δ clinical score untreated -treated, Avg. Delta: 0.00 points
  Average clinical score per day (untreated): 0.00 points
1 mg/kg IP (Group 6), Day 5
  Clinical score of treated leg (Avg.): 0.00 points
  Paw thickness Avg. Delta untreated -treated: 0.01 mm
  Percent change of weight per day (Av): 88.34%
  Percent change of weight per day (individual animal): 88.44% and 86.2069% and 91.63% and 86.18% and 86.85% and 89.74% and 89.32%
  Δ clinical score untreated -treated, Avg. Delta: 0.00 points
  Average clinical score per day (untreated): 0.00 points
1 mg/kg IP (Group 6), Day 6
  Clinical score of treated leg (Avg.): 0.00* points
  Paw thickness Avg. Delta untreated -treated: −0.05 mm
  Paw thickness of treated leg (Avg.): 2.25** mm
  Percent change of weight per day (Av): 87.71%
  Percent change of weight per day (individual animal): 88.44% and 86.7% and 89.66% and 86.18% and 86.85% and 89.74% and 86.41%
  Δ clinical score untreated -treated, Avg. Delta: 0.00 points
  Average clinical score per day (untreated): 0.00 points
1 mg/kg IP (Group 6), Day 7
  Clinical score of treated leg (Avg.): 0.00** points
  Paw thickness Avg. Delta untreated -treated: 0.03 mm
  Paw thickness of treated leg (Avg.): 2.16**** mm
  Percent change of weight per day (Av): 88.39%
  Percent change of weight per day (individual animal): 89.45% and 85.22% and 88.67% and 87.5576% and 88.73% and 90.26% and 88.83%
  Δ clinical score untreated -treated, Avg. Delta: 0.00 points
  Average clinical score per day (untreated): 0.00 points
1 mg/kg IP (Group 6), Day 8
  Clinical score of treated leg (Avg.): 0.00** points
  Paw thickness Avg. Delta untreated -treated: 0.10 mm
  Percent change of weight per day (Av): 88.85%
  Percent change of weight per day (individual animal): 89.95% and 85.22% and 87.68% and 91.24% and 88.73% and 91.28% and 87.86%
  Δ clinical score untreated -treated, Avg. Delta: 0.00 points
  Average clinical score per day (untreated): 0.00 points
1 mg/kg IP (Group 6), Day 10
  Clinical score of treated leg (Avg.): 0.14* points
  Paw thickness Avg. Delta untreated -treated: −0.04 mm
  Paw thickness of treated leg (Avg.): 2.09** mm
  Percent change of weight per day (Av): 88.77%
  Percent change of weight per day (individual animal): 89.45% and 86.7% and 88.18% and 91.24% and 88.26% and 89.23% and 88.35%
  Δ clinical score untreated -treated, Avg. Delta: −0.14 points
  Average clinical score per day (untreated): 0.00 points
1 mg/kg IP (Group 6), Day 12
  Clinical score of treated leg (Avg.): 0.00* points
  Paw thickness Avg. Delta untreated -treated: −0.02 mm
  Percent change of weight per day (Av): 90.11%
  Percent change of weight per day (individual animal): 91.9598% and 88.18% and 91.133* percent and 90.78% and 90.14% and 89.23% and 89.32%
  Δ clinical score untreated -treated, Avg. Delta: 0.00 points
  Average clinical score per day (untreated): 0.00 points
[1]
  Weight per day, Baseline: 19.8 g
  Weight per day, Day 3: 19.5 g
  Weight per day, Day 4: 18.8 g
  Weight per day, Day 5: 18.1 g
  Weight per day, Day 6: 17.5 g
  Weight per day, Day 7: 17.4 g
  Weight per day, Day 8: 17.7 g
  Weight per day, Day 10: 18.3 g
[2]
  Weight per day, Baseline: 19.1 g and 20.3 g and 18.6 g and 19.2 g and 20.2 g (2×) and 20.9 g
  Weight per day, Day 3: 19.1 g (2×) and 19.8 g and 17.8 g and 19.9 g and 19.7 g and 20.6 g
  Weight per day, Day 4: 18.7 g and 19.6 g and 17.3 g and 17.9 g and 19.2 g and 19.1 g and 20.1 g
  Weight per day, Day 5: 17.3 g and 18.5 g and 16.5 g and 19.2 g and 18.2 g and 17.7 g and 19 g
  Weight per day, Day 6: 16.6 g and 17.8 g and 16 g and 19.6 g and 17.7 g and 17.1 g and 17.9 g
  Weight per day, Day 7: 17 g and 16.9 g and 16 g and 20 g and 17.4 g and 15.8 g and 18.7 g
  Weight per day, Day 8: 17.2 g and 16.9 g and 16.3 g and 20.1 g and 18 g and 16.4 g and 18.9 g
  Weight per day, Day 10: 17.4 g and 18.8 g and 16.3 g and 20 g and 18.2 g (2×) and 19.4 g
[3]
  Weight per day, Baseline: 20.5 g
  Weight per day, Day 3: 19.6 g
  Weight per day, Day 4: 19.8 g
  Weight per day, Day 5: 18.1 g
  Weight per day, Day 6: 18 g
  Weight per day, Day 7: 18.1 g
  Weight per day, Day 8: 18.2 g
  Weight per day, Day 10: 18.2 g
[4]
  Weight per day, Baseline: 19.9 g and 20.3 g (2×) and 21.7 g and 21.3 g and 19.5 g and 20.6 g
  Weight per day, Day 3: 18.9 g and 19.1 g and 19.3 g and 20.9 g and 20.5 g and 18.8 g and 19.8 g
  Weight per day, Day 4: 19.2 g and 19.4 g and 19.7 g and 20.9 g and 20.6 g and 19 g and 19.9 g
  Weight per day, Day 5: 17.6 g and 17.5 g (2×) and 18.6 g and 18.7 g and 18.5 g and 18.4 g
  Weight per day, Day 6: 17.6 g (2×) and 18.2 g and 18.7 g and 18.5 g and 17.5 g and 17.8 g
  Weight per day, Day 7: 17.8 g and 17.3 g and 18 g and 19 g and 18.9 g and 17.6 g and 18.3 g
  Weight per day, Day 8: 17.9 g and 17.3 g and 17.8 g (2×) and 19.8 g and 18.9 g and 18.1 g
  Weight per day, Day 10: 17.8 g and 17.6 g and 17.9 g and 19.8 g and 18.8 g and 17.4 g and 18.2 g
intra-articular 1 mg/kg, day 12, scale 0-4
  average arthritis score, treated limbs: 1.3
